Laboratory results published in patent publication US8207314B2, “Tumor antigens for prevention and/or treatment of cancer” (Sanofi Pasteur Limited, priority 2003, dated 2012).

Key:
[1] = test system: targets pulsed with corresponding peptide pools; assay: CTL killing of targets pulsed with BFY3 peptide pools or peptides; format: cell-based, human; details: for Peptides eliciting CTL activity (peptide pulsed targets): BFY3 nonamer peptides, listing = result; for recognition of single peptides by CTL: BFY3 peptides, peptide-pulsed targets
Method: (§1) In addition to ELISPOT analysis, human T cells activated by BFY3 peptides were assayed for reactivity. Ten pools of peptides consisting often peptides per pool used to generate CTL. These 10 groups of effectors used to kill targets pulsed with corresponding peptide pools. […]

[2] = test system: Human PBMC from an HLA-A2.1 positive donor; assay: IFN-γ ELISPOT of human T cells activated with BFY3 peptide pools and deconvolution to single peptides; format: cell-based; details: BFY3 nonamer peptides; listing = result
From the text: Human PBMC from an HLA-A2.1 positive donor designated AP31 were activated with autologous dendritic cells pulsed with different pools of 9-mer peptides from the BFY3 antigen (see Table I for list). The activated T cells were re-stimulated after 12 days with activated autologous CD40-ligand-activated B cells pulsed with the same respective peptide pools for another 8 to 10 days. This secondary activation was repeated 2 more time for a total of 4 stimulations. The activated T cells were isolated after the 4th stimulation and subjected to ELISPOT analysis for human IFN-γ production against their respective BFY3 peptide pools as shown. The blue bars show reactivity against the BFY3 peptide pools and the red bars are for an HLA-A2.1-binding HIV peptide as a negative control. Standard deviations are indicated. The experiment was repeated 2 times on activated T cells from different rounds of peptide stimulation with the similar results (FIG. 17A).
The BFY3 peptide pools were deconvoluted and studied in IFN-γ ELISPOT assays. Stimulation was performed as described earlier for the other antigens described. After 4 rounds of stimulation, the T cells from each culture were harvested and subjected to ELISPOT analysis for IFN-γ production with each individual peptide in each pool. FIG. 17B illustrates individual peptide reactivity for each specific pool.

[3] = test system: CosA2 cells transfected with BFY3; assay: CTL killing of BFY3-transfected cells; format: cell-based; details: CTL generated from BFY3 peptide pools
Method: as §1

[4] = test system: autologous T-cell-enriched PBMC preparations; assay: IFN-γ ELISPOT of human T cells stimulated with AAC2-2 peptide pools; format: cell-based; details: human T cells from HLA-A-0201 donors, after third and fourth round of stimulation with AAC2-2 peptide pools
Method: Using the AAC2-2 amino acid sequence, a library of 9-mer peptides predicted to bind to HLA-A-0201 was constructed (Table III; “N” indicates the sequence is not found within the mouse homolog, while “Y” indicates the sequence is found within the mouse homolog). Twenty-three of the peptides were dissolved in DMSO at 10 mg/ml (Table IV) and used in human PBMC cultures to test for their ability to elicit CD8 and CD4αβ T-cell responses in vitro.
Using GM-CSF and IL-4, dendritic cells (DC) were generated from peripheral blood monocytes of blood donors expressing HLA-A-0201.
These DC were used to stimulate autologous T-cell-enriched PBMC preparations. The T cells were re-stimulated with autologous PBMC and then re-stimulated with CD40-ligand-activated autologous B cells. […] Peptide group 6 includes the following peptides: […] (aa 36-44), […] (aa 41-49), and […] (aa 95-103).

[5] = test system: peptide-loaded TAP-deficient T2 cells; assay: CTL activity of AAC2-2 peptide pool-specific T-cell line; format: cell-based, human; details: HLA-A-0201-restricted, T-cell line stimulated by peptide group 6
Method: Thus, it was determined that AAC2-2 peptides are immunogenic in the human immune system.

HAIEEVPHV [CLP 3344]
Peptides eliciting CTL activity (peptide pulsed targets) [1]: HAIEEVPHV
recognition of single peptides by CTL [1]: strongly recognized
Peptides eliciting strong IFN-γ ELISPOT activity [2]: HAIEEVPHV
killing of CosA2 cells transfected with BFY3 by CTL [3]: responsible for this cytotoxicity

ILTDVTLLV [EC5]
IFN-γ production (ELISPOT) [4]: dominant activity
CTL activity killing peptide-loaded T2 target cells [5]: dominant activity
CTL activity killing peptide-loaded T2 target cells ([5]; listed as ILTDVTLLV): dominant peptide

MLWKLTDNI [CLP 3320]
Peptides eliciting CTL activity (peptide pulsed targets) [1]: MLWKLTDNI
recognition of single peptides by CTL [1]: strongly recognized
Peptides eliciting strong IFN-γ ELISPOT activity [2]: MLWKLTDNI
killing of CosA2 cells transfected with BFY3 by CTL [3]: responsible for this cytotoxicity
